From US10722501B2 (BAYER AKTIENGESELLSCHAFT, priority 2016, dated 2020) come the findings set out here.

This experiment addresses T1, recombinant full-length human prolyl endopeptidase (PREP) (Homo sapiens, UniProt P48147).
T1 construct: To recombinant full-length human prolyl endopeptidase (PREP, R&D-Systems, 4308-SE); purchased R&D-Systems 4308-SE
T1 sequence (P48147 1-710): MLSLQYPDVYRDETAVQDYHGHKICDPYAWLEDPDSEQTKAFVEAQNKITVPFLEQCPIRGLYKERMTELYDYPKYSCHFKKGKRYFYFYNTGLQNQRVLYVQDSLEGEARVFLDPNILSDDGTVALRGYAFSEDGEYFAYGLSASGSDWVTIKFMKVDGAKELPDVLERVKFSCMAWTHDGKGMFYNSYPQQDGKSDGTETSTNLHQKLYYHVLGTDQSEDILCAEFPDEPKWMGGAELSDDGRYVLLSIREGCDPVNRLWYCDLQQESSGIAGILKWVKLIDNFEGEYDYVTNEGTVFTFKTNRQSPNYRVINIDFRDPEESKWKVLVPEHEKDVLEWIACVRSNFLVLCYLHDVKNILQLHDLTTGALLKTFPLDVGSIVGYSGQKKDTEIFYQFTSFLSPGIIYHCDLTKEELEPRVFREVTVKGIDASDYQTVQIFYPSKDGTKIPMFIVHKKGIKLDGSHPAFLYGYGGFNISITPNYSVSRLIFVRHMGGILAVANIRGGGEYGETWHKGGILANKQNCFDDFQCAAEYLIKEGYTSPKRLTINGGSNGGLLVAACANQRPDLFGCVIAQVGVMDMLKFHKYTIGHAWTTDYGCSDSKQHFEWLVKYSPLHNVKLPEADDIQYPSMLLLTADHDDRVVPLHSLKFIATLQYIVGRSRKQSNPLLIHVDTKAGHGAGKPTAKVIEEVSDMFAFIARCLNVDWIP
Put plainly: Biochemical human prolyl endopeptidase (PREP) assay with fluorescently labelled substrate. The following applies: substrate Z-Gly-Pro-AMC 50 μM, 32° C., 60 min; some as mean values from multiple independent determinations. The essentials: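 Initial rates of fluorescence increase from 50 μM Z-Gly-Pro-AMC cleavage (ex 360/em 465 nm, 60 min, 32° C) give percent PREP activity versus no-compound control, and IC50 is interpolated. Enzyme used at 0.4 nM (final, example) in Tris pH 7.5 with EDTA, GSH, BSA and Brij-35; compounds span 1 nM to 30 μM.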
As for `Cc1ccc(Cn2nc3n(c2=O)[C@H](C(=O)N2C[C@@H](O)[C@H](F)C2)CCC3)cc1` [Example 183, (5S)-5-{[(3R,4R)-3-Fluoro-4-hydroxypyrrolidin-1-yl]carbonyl}-2-(4-methylbenzyl)-5,6,7,8-tetrahydro[1,2,4]triazolo[4,3-a]pyridin-3(2H)-one], the IC50 is 109 nM.
Take `O=C([C@@H]1CCCc2nn(CC3CC3)c(=O)n21)N1C[C@@H](F)[C@@H](F)C1` [Example 184, (5S)-2-(Cyclopropylmethyl)-5-{[(3R,4S)-3,4-difluoropyrrolidin-1-yl]carbonyl}-5,6,7,8-tetrahydro[1,2,4]triazolo[4,3-a]pyridin-3(2H)-one]: the half-maximal inhibitory concentration (IC50) was 4.5 nM.
`O=C([C@@H]1CCCc2nn(Cc3ccnc(C(F)(F)F)c3F)c(=O)n21)N1CC2CC1C2` [Example 187, (5S)-5-(2-Azabicyclo[2.1.1]hex-2-ylcarbonyl)-2-{[3-fluoro-2-(trifluoromethyl)pyridin-4-yl]methyl}-5,6,7,8-tetrahydro[1,2,4]triazolo[4,3-a]pyridin-3(2H)-one]: the IC50 was found to be 102 nM.
For the compound `Cc1ccc(Cn2nc3n(c2=O)[C@H](C(=O)N2CCC[C@H]2C(=O)CO)CCC3)cc1` [Example 190, (5S)-5-{[(2S)-2-Glycoloylpyrrolidin-1-yl]carbonyl}-2-(4-methylbenzyl)-5,6,7,8-tetrahydro[1,2,4]triazolo[4,3-a]pyridin-3(2H)-one], the IC50 came to 0.13 nM.
As for `Cc1ccc(Cn2nc3n(c2=O)[C@H](C(=O)N2CC4(C2)CC4(F)F)CCC3)cc1` [Example 191, (5S)-5-[(1,1-Difluoro-5-azaspiro[2.3]hex-5-yl)carbonyl]-2-(4-methylbenzyl)-5,6,7,8-tetrahydro[1,2,4]triazolo[4,3-a]pyridin-3(2H)-one], the half-maximal inhibitory concentration (IC50) was 2.8 nM.
Turning to `Cc1ccc(Cn2nc3n(c2=O)[C@H](C(=O)N2CC(C)C2)CCC3)cc1` [Example 192, (5S)-5-[(3-Methylazetidin-1-yl)carbonyl]-2-(4-methylbenzyl)-5,6,7,8-tetrahydro[1,2,4]triazolo[4,3-a]pyridin-3(2H)-one], the half-maximal inhibitory concentration (IC50) is 0.32 nM.
`Cc1ccc(Cn2nc3n(c2=O)[C@H](C(=O)N2CC(C)(F)C2)CCC3)cc1` [Example 195, (5S)-5-[(3-Fluoro-3-methylazetidin-1-yl)carbonyl]-2-(4-methylbenzyl)-5,6,7,8-tetrahydro[1,2,4]triazolo[4,3-a]pyridin-3(2H)-one]: the IC50 amounted to 0.69 nM.
Consider `Cc1ccc(Cn2nc3n(c2=O)[C@H](C(=O)N2CCC[C@H]2C=O)CCC3)cc1` [Example 196, (2S)-1-{[(5S)-2-(4-Methylbenzyl)-3-oxo-2,3,5,6,7,8-hexahydro[1,2,4]triazolo[4,3-a]pyridin-5-yl]carbonyl}pyrrolidine-2-carbaldehyde], for which the half-maximal inhibitory concentration (IC50) was 0.4 nM.
In the case of `O=C([C@@H]1CCCc2nn(Cc3ccc(C(F)(F)F)nc3)c(=O)n21)N1CC2CC1C2` [Example 199, (5S)-5-(2-Azabicyclo[2.1.1]hex-2-ylcarbonyl)-2-{[6-(trifluoromethyl)pyridin-3-yl]methyl}-5,6,7,8-tetrahydro[1,2,4]triazolo[4,3-a]pyridin-3(2H)-one], the IC50 was determined as 59 nM.
With `O=C([C@@H]1CCCc2nn(/C=C/c3ccc(F)cc3)c(=O)n21)N1CCCC1` [Example 204, (5S)-2-[(E)-2-(4-Fluorophenyl)vinyl]-5-(pyrrolidin-1-ylcarbonyl)-5,6,7,8-tetrahydro[1,2,4]triazolo[4,3-a]pyridin-3(2H)-one], the 50% inhibitory concentration (IC50) came out at 320 nM.
As for `O=C([C@@H]1CCCc2nn(Cc3ccc(C(F)F)nc3)c(=O)n21)N1CC[C@H](F)C1` [Example 206, (5S)-2-{[6-(Difluoromethyl)pyridin-3-yl]methyl}-5-{[(3S)-3-fluoropyrrolidin-1-yl]carbonyl}-5,6,7,8-tetrahydro[1,2,4]triazolo[4,3-a]pyridin-3(2H)-one], the half-inhibitory concentration (IC50) worked out at 1.2 nM.
Turning to `O=C([C@@H]1CCCc2nn(Cc3ccc(C(F)F)nc3)c(=O)n21)N1C[C@@H](F)[C@@H](F)C1` [Example 207, (5S)-2-{[6-(Difluoromethyl)pyridin-3-yl]methyl}-5-{[(3R,4S)-3,4-difluoropyrrolidin-1-yl]carbonyl}-5,6,7,8-tetrahydro[1,2,4]triazolo[4,3-a]pyridin-3(2H)-one], the 50% inhibitory concentration (IC50) worked out at 4.2 nM.
With `O=C([C@@H]1CCCc2nn(Cc3ccc(C(F)F)nc3)c(=O)n21)N1CCC(F)(F)C1` [Example 208, (5S)-2-{[6-(Difluoromethyl)pyridin-3-yl]methyl}-5-[(3,3-difluoropyrrolidin-1-yl)carbonyl]-5,6,7,8-tetrahydro[1,2,4]triazolo[4,3-a]pyridin-3(2H)-one] the figure was 15 nM.
In the case of `O=C([C@@H]1CCCc2nn(Cc3ccc(C(F)F)nc3)c(=O)n21)N1CC(F)C1` [Example 209, (5S)-2-{[6-(Difluoromethyl)pyridin-3-yl]methyl}-5-[(3-fluoroazetidin-1-yl)carbonyl]-5,6,7,8-tetrahydro[1,2,4]triazolo[4,3-a]pyridin-3(2H)-one], the 50% inhibitory concentration (IC50) was 5.5 nM.
As to `O=C([C@@H]1CCCc2nn(Cc3ccc(Br)cc3)c(=O)n21)N1C[C@@H](F)[C@@H](F)C1` [Example 210, (5S)-2-(4-Bromobenzyl)-5-{[(3R,4S)-3,4-difluoropyrrolidin-1-yl]carbonyl}-5,6,7,8-tetrahydro[1,2,4]triazolo[4,3-a]pyridin-3(2H)-one], the IC50 was determined as 0.27 nM.
With `O=C([C@@H]1CCCc2nn(Cc3cccc(Br)c3)c(=O)n21)N1C[C@@H](F)[C@@H](F)C1` [Example 211, (5S)-2-(3-Bromobenzyl)-5-{[(3R,4S)-3,4-difluoropyrrolidin-1-yl]carbonyl}-5,6,7,8-tetrahydro[1,2,4]triazolo[4,3-a]pyridin-3(2H)-one], the IC50 is 0.15 nM.
With `O=C([C@@H]1CCCc2nn(Cc3ccc(Br)cc3)c(=O)n21)N1CC[C@H](F)C1` [Example 212, (5S)-2-(4-Bromobenzyl)-5-{[(3S)-3-fluoropyrrolidin-1-yl]carbonyl}-5,6,7,8-tetrahydro[1,2,4]triazolo[4,3-a]pyridin-3(2H)-one] the figure was 0.041 nM; with `O=C([C@@H]1CCCc2nn(Cc3cccc(Br)c3)c(=O)n21)N1CC[C@H](F)C1` [Example 213, (5S)-2-(3-Bromobenzyl)-5-{[(3S)-3-fluoropyrrolidin-1-yl]carbonyl}-5,6,7,8-tetrahydro[1,2,4]triazolo[4,3-a]pyridin-3(2H)-one], 0.77 nM; with `O=C([C@@H]1CCCc2nn(Cc3ccc(Br)cc3F)c(=O)n21)N1CC[C@H](F)C1` [Example 214, (5S)-2-(4-Bromo-2-fluorobenzyl)-5-{[(3S)-3-fluoropyrrolidin-1-yl]carbonyl}-5,6,7,8-tetrahydro[1,2,4]triazolo[4,3-a]pyridin-3(2H)-one], 0.2 nM.
As for `O=C([C@@H]1CCCc2nn(Cc3ccc(Br)cc3F)c(=O)n21)N1C[C@@H](F)[C@@H](F)C1` [Example 215, (5S)-2-(4-Bromo-2-fluorobenzyl)-5-{[(3R,4S)-3,4-difluoropyrrolidin-1-yl]carbonyl}-5,6,7,8-tetrahydro[1,2,4]triazolo[4,3-a]pyridin-3(2H)-one], the figure is 0.53 nM; as for `O=C([C@@H]1CC=Cc2nn(Cc3ccc(C(F)(F)F)nc3)c(=O)n21)N1CC[C@H](F)C1` [Example 276, (5S)-5-{[(3S)-3-Fluoropyrrolidin-1-yl]carbonyl}-2-{[6-(trifluoromethyl)pyridin-3-yl]methyl}-5,6-dihydro[1,2,4]triazolo[4,3-a]pyridin-3(2H)-one], 3.6 nM.
Regarding `O=C([C@@H]1CCC(F)(F)c2nn(Cc3ccc(C(F)(F)F)nc3)c(=O)n21)N1CC[C@H](F)C1` [Example 278, (5S)-8,8-Difluoro-5-{[(3S)-3-fluoropyrrolidin-1-yl]carbonyl}-2-{[6-(trifluoromethyl)pyridin-3-yl]methyl}-5,6,7,8-tetrahydro[1,2,4]triazolo[4,3-a]pyridin-3(2H)-one], the half-inhibitory concentration (IC50) came out at 3.3 nM.
Regarding `O=C([C@@H]1CCCc2nn(CCc3ncc(C(F)(F)F)cc3Cl)c(=O)n21)N1CC[C@H](F)C1` [Example 342, (5S)-2-{2-[3-Chloro-5-(trifluoromethyl)pyridin-2-yl]ethyl}-5-{[(3S)-3-fluoropyrrolidin-1-yl]carbonyl}-5,6,7,8-tetrahydro[1,2,4]triazolo[4,3-a]pyridin-3(2H)-one], the IC50 stood at 1.75 nM.
`O=C([C@@H]1CCCc2nn(CCc3ncc(C(F)(F)F)cc3Cl)c(=O)n21)N1CCC(F)(F)C1` [Example 343, (5S)-2-{2-[3-Chloro-5-(trifluoromethyl)pyridin-2-yl]ethyl}-5-[(3,3-difluoropyrrolidin-1-yl)carbonyl]-5,6,7,8-tetrahydro[1,2,4]triazolo[4,3-a]pyridin-3(2H)-one]: the IC50 worked out at 7.9 nM.
